Activity calls are given as the source filed them. The calls are words filed in the database; no cut-off is given here.
Tests used:
[1] = biological target: Receptor-interacting serine/threonine-protein kinase 3 (Homo sapiens, UniProt Q9Y572); experiment: Inhibition of RIPK3 phosphorylation in TSZ induced human HT-29 cells at 1 uM pretreated with compound followed by TSZ stimulation for 6 hrs by Western blot analysis; format: cell-based
Mus musculus [2] = experiment: Anti-inflammatory activity against C57BL/6J mouse model of TNFalpha-induced systemic inflammatory response syndrome (SIRS) assessed as decrease in IL-6 level in liver at 1.25 to 5 mg/kg,po 2 hrs prior to mTNFalpha and z-VAD-FMK stimulation for 8 hrs by ELISA; format: functional, organism-based; details: dose 1.25-5 mg/kg, time 10.0 hrs
[3] = Acute toxicity in mouse assessed as pathological damage in brain at 100 to 200 mg/kg,IG and measured after 14 days by H and E staining based microscopy; format: organism-based; details: in vivo, po, 336 h, dose 100-200 mg/kg, time 14 day
Mus musculus [4] = experiment: Anti-inflammatory activity against C57BL/6J mouse model of TNFalpha-induced systemic inflammatory response syndrome (SIRS) assessed as decrease in IL-6 level in brain at 1.25 to 5 mg/kg,po 2 hrs prior to mTNFalpha and z-VAD-FMK stimulation for 8 hrs by ELISA; format: functional, organism-based; details: dose 1.25-5 mg/kg, time 10.0 hrs
Mus musculus [5] = experiment: Anti-inflammatory activity against C57BL/6J mouse model of TNFalpha-induced systemic inflammatory response syndrome (SIRS) assessed as decrease in IL-1beta level in liver at 1.25 to 5 mg/kg,po 2 hrs prior to mTNFalpha and z-VAD-FMK stimulation for 8 hrs by ELISA; format: functional, organism-based; details: dose 1.25-5 mg/kg, time 10.0 hrs
[6] = Metabolic stability in mouse liver mitochondria assessed as degradation rate at 4 micromol/L and measured upto 240 mins; format: ADME; details: 4 h, 4 µM, dose 4 µmol/L
[7] = Acute toxicity in mouse assessed as pathological damage in heart at 100 to 200 mg/kg,IG and measured after 14 days by H and E staining based microscopy; format: organism-based; details: in vivo, po, 336 h, dose 100-200 mg/kg, time 14 day
[8] = Acute toxicity in mouse assessed as pathological damage in kidney at 100 to 200 mg/kg,IG and measured after 14 days by H and E staining based microscopy; format: organism-based; details: in vivo, po, 336 h, dose 100-200 mg/kg, time 14 day
Mus musculus [9] = experiment: Anti-inflammatory activity against C57BL/6J mouse model of TNFalpha-induced systemic inflammatory response syndrome (SIRS) assessed as decrease in IL-6 level in lung at 1.25 to 5 mg/kg,po 2 hrs prior to mTNFalpha and z-VAD-FMK stimulation for 8 hrs by ELISA; format: functional, organism-based; details: dose 1.25-5 mg/kg, time 10.0 hrs
Mus musculus [10] = experiment: Anti-inflammatory activity against C57BL/6J mouse model of TNFalpha-induced systemic inflammatory response syndrome (SIRS) assessed as decrease in IL-1beta level in kidney at 1.25 to 5 mg/kg,po 2 hrs prior to mTNFalpha and z-VAD-FMK stimulation for 8 hrs by ELISA; format: functional, organism-based; details: dose 1.25-5 mg/kg, time 10.0 hrs
[11] = Acute toxicity in mouse assessed as pathological damage in lung at 100 to 200 mg/kg,IG and measured after 14 days by H and E staining based microscopy; format: organism-based; details: in vivo, po, 336 h, dose 100-200 mg/kg, time 14 day
HT-29 = experiment: Anti-apoptotic activity against human HT-29 cells assessed as inhibition of TC (human TNFalpha, cycloheximide) induced apoptosis upto 1 uM pretreated with compound followed by TC stimulation for 36 hrs by CellTiter-Glo Luminescent cell viability assay; format: functional, cell-based
Mus musculus [12] = experiment: Anti-inflammatory activity against C57BL/6J mouse model of TNFalpha-induced systemic inflammatory response syndrome (SIRS) assessed as decrease in […] IL-1beta level in heart at 1.25 to 5 mg/kg,po 2 hrs prior to mTNFalpha and z-VAD-FMK stimulation for 8 hrs by ELISA; format: functional, organism-based; details: dose 1.25-5 mg/kg, time 10.0 hrs
[13] = biological target: T1, Mixed lineage kinase domain-like protein (Homo sapiens) (UniProt Q8NB16); experiment: Inhibition of MLKL phosphorylation in TSZ induced human HT-29 cells at 1 uM pretreated with compound followed by TSZ stimulation for 6 hrs by Western blot analysis; format: cell-based
T1 sequence (whole entry): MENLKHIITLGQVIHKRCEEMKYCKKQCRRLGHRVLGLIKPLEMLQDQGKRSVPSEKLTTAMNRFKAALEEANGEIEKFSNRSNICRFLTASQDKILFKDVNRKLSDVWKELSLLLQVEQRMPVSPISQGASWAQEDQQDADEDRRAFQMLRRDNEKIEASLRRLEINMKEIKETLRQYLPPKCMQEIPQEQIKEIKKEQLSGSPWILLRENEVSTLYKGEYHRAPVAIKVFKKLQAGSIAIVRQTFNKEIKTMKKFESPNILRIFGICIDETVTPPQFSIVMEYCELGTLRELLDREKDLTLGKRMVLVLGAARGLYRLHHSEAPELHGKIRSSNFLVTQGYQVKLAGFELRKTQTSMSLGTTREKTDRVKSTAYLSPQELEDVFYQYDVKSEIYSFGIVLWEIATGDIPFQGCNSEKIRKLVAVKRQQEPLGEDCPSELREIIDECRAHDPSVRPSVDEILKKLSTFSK

[14] = Metabolic stability in human liver mitochondria assessed as degradation rate at 4 micromol/L and measured upto 240 mins; format: ADME; details: 4 h, 4 µM, dose 4 µmol/L
Mus musculus [15] = experiment: Anti-inflammatory activity against C57BL/6J mouse model of TNFalpha-induced systemic inflammatory response syndrome (SIRS) assessed as decrease in IL-6 level in intestine at 1.25 to 5 mg/kg,po 2 hrs prior to mTNFalpha and z-VAD-FMK stimulation for 8 hrs by ELISA; format: functional, organism-based; details: dose 1.25-5 mg/kg, time 10.0 hrs
[16] = Acute toxicity in mouse assessed as increase in body weight at 100 to 200 mg/kg,IG and measured upto 14 days; format: organism-based; details: in vivo, po, 336 h, dose 100-200 mg/kg, time < 14 day
[17] = biological target: T2, Receptor-interacting serine/threonine-protein kinase 1 (Homo sapiens, UniProt Q13546); experiment: Binding affinity to recombinant RIPK1 (unknown origin) assessed as dissociation constant incubated for 1 hr by KINOMEscanTM assay
T2 sequence (Q13546 whole entry): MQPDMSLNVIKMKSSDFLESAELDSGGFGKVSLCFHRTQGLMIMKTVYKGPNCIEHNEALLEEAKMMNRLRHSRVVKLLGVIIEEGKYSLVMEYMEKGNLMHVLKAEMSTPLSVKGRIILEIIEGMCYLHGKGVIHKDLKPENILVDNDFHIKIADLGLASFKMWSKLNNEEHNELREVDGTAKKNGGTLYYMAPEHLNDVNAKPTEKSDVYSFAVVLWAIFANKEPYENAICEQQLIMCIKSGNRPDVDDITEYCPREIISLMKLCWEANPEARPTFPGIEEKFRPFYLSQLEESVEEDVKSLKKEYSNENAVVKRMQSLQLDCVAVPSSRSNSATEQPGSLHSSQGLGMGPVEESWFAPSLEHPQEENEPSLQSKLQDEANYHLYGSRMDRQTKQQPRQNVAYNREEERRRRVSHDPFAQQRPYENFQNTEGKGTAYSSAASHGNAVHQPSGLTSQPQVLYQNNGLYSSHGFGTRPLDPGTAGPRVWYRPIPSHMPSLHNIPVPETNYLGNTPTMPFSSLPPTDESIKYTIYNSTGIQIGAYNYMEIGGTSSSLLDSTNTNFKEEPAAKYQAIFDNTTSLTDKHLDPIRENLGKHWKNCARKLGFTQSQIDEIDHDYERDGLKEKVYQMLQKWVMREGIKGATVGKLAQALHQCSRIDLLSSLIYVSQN

Chain of Receptor-interacting serine/threonine-protein kinase 3 (Q9Y572 whole entry, looked up): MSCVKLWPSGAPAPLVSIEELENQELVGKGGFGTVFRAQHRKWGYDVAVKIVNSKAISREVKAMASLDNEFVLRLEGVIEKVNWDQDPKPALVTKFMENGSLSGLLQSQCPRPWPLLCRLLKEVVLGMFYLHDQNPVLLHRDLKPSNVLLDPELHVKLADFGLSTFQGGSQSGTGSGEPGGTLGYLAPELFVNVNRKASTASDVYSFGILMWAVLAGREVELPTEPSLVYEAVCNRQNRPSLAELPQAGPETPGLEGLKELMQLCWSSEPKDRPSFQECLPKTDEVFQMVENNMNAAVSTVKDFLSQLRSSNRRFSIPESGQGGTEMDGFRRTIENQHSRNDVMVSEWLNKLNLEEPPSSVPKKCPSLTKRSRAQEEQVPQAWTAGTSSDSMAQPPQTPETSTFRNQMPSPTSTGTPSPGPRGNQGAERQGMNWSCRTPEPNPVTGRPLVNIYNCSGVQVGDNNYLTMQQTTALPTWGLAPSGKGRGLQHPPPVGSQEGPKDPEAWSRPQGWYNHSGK

O=C(Cc1cccc(OC(F)(F)F)c1)Nc1cc(-c2ccc3nc(NC(=O)C4CC4)sc3c2)ccc1F
inhibition [1]: Active
Activity (Mus musculus [2]): Dose-Dependent Effect
Activity [3]: Non-Toxic
Activity (Mus musculus [4]): Dose-Dependent Effect
Activity (Mus musculus [5]): inactive
Stability [6]: Stable
Activity [7]: Non-Toxic
Activity [8]: Non-Toxic
Activity (Mus musculus [9]): Dose-Dependent Effect
Activity (Mus musculus [10]): inactive
Activity [11]: Non-Toxic
Activity (HT-29): inactive
Activity (Mus musculus [12]): Active
inhibition [13]: Active
Stability [14]: Stable
Activity (Mus musculus [15]): Dose-Dependent Effect
Activity [16]: Non-Toxic
Kd [17]: 17 nM

Reference: ChEMBL document CHEMBL5370665, “Insight from Linker Investigations: Discovery of a Novel Phenylbenzothiazole Necroptosis Inhibitor Targeting Receptor-Interacting Protein Kinase 1 (RIPK1) from a Phenoxybenzothiazole Compound with Dual RIPK1/3 Targeting Activity” (J Med Chem, 2023)
